Reference: US4469692A, “Spiro derivatives of the pyrazolo [1,5-d] [1,2,4] triazine ring system and a process for the preparation thereof” (Alkaloida Vegyeszeti Gyar, priority 1981, dated 1984)
Entries after “also recorded” stand apart in the source; their conditions may differ.

Experiments:
mice [1] = experiment: Hypnotic effect in mice (method of Janssen et al.); assay type: in vivo; conditions: for minimal effective dose / ED50: Mus musculus, iv; for minimal effective dose: 0.05 h, read-out: Hmin (minimal hypnotic dose inducing sleep in all animals for a period exceeding 3 minutes); for minimal effective dose / Mean duration of sleep: i.v.; for ED50: read-out: HD50 (dose inducing sleep in 50 percent of the animals)
Protocol: (§1) The hypnotic activity is measured by the method of Janssen et al. (J. Med. Chem. 8, 220/1965/). Ketalar/2-(2-chlorophenyl)-2-methyl-amino-cyclohexanone/ and Hexobarbital (5-methyl-5-hexenyl-barbituric acid) were applied as reference compounds.

rats = experiment: Hypnotic effect in rats (method of Janssen et al.); assay type: in vivo; conditions: for ED50: Rattus norvegicus, iv, read-out: HD50 (the source's name); for Mean duration of sleep: i.v., in the case of dose HD50
Protocol: as §1

[2] = Acute toxicity (LD50) in mice; conditions: mouse, in vivo, iv
[3] = Acute toxicity (LD50) in rats; conditions: rat, in vivo, iv
rabbits = experiment: Hypnotic effect in rabbits (method of Janssen et al.); assay type: in vivo; conditions: for minimal effective dose: Oryctolagus cuniculus, iv, read-out: Hmin; for Mean duration of sleep: i.v., in the case of dose Hmin
Protocol: as §1

[4] = Acute toxicity (LD50, lethality) in rabbits; conditions: rabbit, in vivo; for LD50: iv, LD50, rabbits
[5] = Postnarcotic period following awakening and adverse effects; assay type: in vivo; conditions: postnarcotic period following awakening
mice [6] = experiment: Acute toxicity (LD50) in mice; conditions: mice, Tables 1 and 2

| SMILES | minimal effective dose (mice [1]) [mg/kg] | ED50 (mice [1]) [mg/kg] | Mean duration of sleep (mice [1]; at a dose of 40 mg/kg) [min] | Mean duration of sleep (mice [1]; in the case of dose HD50) [min] | Mean duration of sleep (mice [1]; in the case of dose Hmin) [min] | ED50 (rats) [mg/kg] | Mean duration of sleep (rats) [min] | LD50 [2] [mg/kg] | LD50 [3] [mg/kg] | minimal effective dose (rabbits) [mg/kg] | Mean duration of sleep (rabbits) [min] | mortality ([4]; 50 mg/kg) [%] | LD50 [4] [mg/kg] | hypnotic effect compared with Hexobarbital and Ketalar (mice [1]; Tables 1 and 2, listed as compound of the invention) | therapeutic index compared with reference substances (rats; Table 3) | adverse effects of the postnarcotic period [5] | toxicity compared with reference substances (mice [6]) |
| --- | --- | --- | --- | --- | --- | --- | --- | --- | --- | --- | --- | --- | --- | --- | --- | --- | --- |
| CN1C(=O)NC(=O)C(C)(C2=CCCCC2)C1=O (stereo not drawn) [Hexobarbital, 5-methyl-5-hexenyl-barbituric acid] | 45 | 25 | 2.6 | 4.1 | 7.2 | 17.5 | 4.45 | 118 | 125 |  |  |  |  |  |  |  |  |
| CNC1(c2ccccc2Cl)CCCCC1=O (stereo not drawn) [Ketalar, 2-(2-chlorophenyl)-2-methyl-amino-cyclohexanone] | 25 | 14.5 |  | 1.7 | 5.0 | 8 | 1.9 | 62 | 39.4 | 25 | 14 | 80 | < 50 |  |  |  |  |
| Cc1cc2n(n1)C1(CCCCC1)N(C)N(C)C2=O [Example 5, Spiro[cyclohexane-1,7'-/6,7-dihydro-2,5,6-trimethylpyrazolo[1,5-d][1,2,4]triazin-4(5H)-one/]] | 25 | 17.5 |  | 2.8 | 6.75 | 16 | 1.5 | 192 | 275 | 25 | 6 |  | ~325 | superior to that of Hexobarbital; also recorded: in the same range as that of Ketalar | more advantageous in both instances | devoid of any adverse effects | substantially lower than that of any of the above reference substances |
